Values joined by “and” are separate entries in the source; they are usually repeats but may differ in a detail not shown here. Equal entries are not always repeated.
Key:
MDA-MB-453 [1] = experiment: drug sensitivity score (DSS), CellTiter-Blue viability (DSS (AUC-based score)); higher = stronger viability inhibition; extreme values may be limits of the assay; details: incubation time: 72 h
In short: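 Drug sensitivity scores correspond to the area under the fitted dose-response curve. Breast cancer cell lines were incubated 72 h with compound at 5 or 9 concentrations in 384-well plates. Viability, read as CellTiter-Blue fluorescence at 560/590 nm, was normalised per plate to 0.1 % DMSO and a positive kill control.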

HCC1937 [2] = experiment: normalised viability (% of control), CellTiter-Blue; higher = more viable cells (about 100 = DMSO control); details: incubation time: 72 h
In short: (§1)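 After 72 h on compound-loaded 384-well plates, breast cancer cell lines received 2.5 µl CellTiter-Blue reagent for 2 h at 37 °C. Fluorescence at 560/590 nm was scaled per plate so that vehicle was 100 and a positive kill control was 0. The value stands for normalised viability at a single listed concentration of the series.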

DU-4475 [3] = experiment: as above; details: incubation time: 72 h
In short: as §1

HCC1143 [4] = experiment: as above; details: incubation time: 72 h
In short: as §1

MDA-MB-436 [5] = experiment: as above; details: incubation time: 72 h
In short: as §1

BT-474 [6] = experiment: as above; details: incubation time: 72 h
In short: as §1

MDA-MB-453 [7] = experiment: as above; details: incubation time: 72 h
In short: as §1

HCC1599 [8] = experiment: as above; details: incubation time: 72 h
In short: as §1

Hs578T [9] = experiment: as above; details: incubation time: 72 h
In short: as §1

HCC1937 [10] = experiment: normalised viability (% of control), CellTiter-Blue; higher = more viable cells (about 100 = DMSO control); details: 100 nM; incubation time: 72 h
Method: (§2)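 DSRT, CellTiter-Blue viability, 72 h incubation. Signal is normalised to DMSO and benzethonium chloride controls. Value is the normalised response at dose 3.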

MDA-MB-231 = experiment: as above; details: 100 nM; incubation time: 72 h
Method: as §2

CAL-120 = experiment: as above; details: 100 nM; incubation time: 72 h
Method: as §2

BT-549 = experiment: as above; details: 100 nM; incubation time: 72 h
Method: as §2

CAL-85-1 = experiment: as above; details: 10 nM; incubation time: 72 h
Method: as §2

SK-BR-3 = experiment: as above; details: 100 nM; incubation time: 72 h
Method: as §2

DU-4475 [11] = experiment: as above; details: 10 nM; incubation time: 72 h
Method: as §2

HCC1143 [12] = experiment: as above; details: 100 nM; incubation time: 72 h
Method: as §2

MDA-MB-436 [13] = experiment: as above; details: 100 nM; incubation time: 72 h
Method: as §2

CAL-51 = experiment: as above; details: 10 nM; incubation time: 72 h
Method: as §2

BT-474 [14] = experiment: as above; details: 100 nM; incubation time: 72 h
Method: as §2

MDA-MB-453 [15] = experiment: as above; details: 10 nM; incubation time: 72 h
Method: as §2

MFM-223 = experiment: as above; details: 100 nM; incubation time: 72 h
Method: as §2

CAL-148 = experiment: as above; details: 10 nM; incubation time: 72 h
Method: as §2

HCC1599 [16] = experiment: as above; details: 100 nM; incubation time: 72 h
Method: as §2

Hs578T [17] = experiment: as above; details: 100 nM; incubation time: 72 h
Method: as §2

MDA-MB-468 = experiment: as above; details: 100 nM; incubation time: 72 h
Method: as §2

HDQ-P1 = experiment: as above; details: 10 nM; incubation time: 72 h
Method: as §2

Cc1cn(-c2cc(NC(=O)c3ccc(C)c(Nc4nccc(-c5cccnc5)n4)c3)cc(C(F)(F)F)c2)cn1 [Nilotinib]
Details | drug sensitivity score | normalised viability
BT-474 [14] | – | 104% and 102%
BT-549 | – | 95.6% and 88.2%
CAL-51 | – | 109% and 111%
CAL-85-1 | – | 93.2% and 92.5%
CAL-120 | – | 80.1% and 86.2%
CAL-148 | – | 89.9% and 90.2%
DU-4475 [11] | – | 98.8% and 104%
HCC1143 [12] | – | 94.3% and 91.8%
HCC1599 [16] | – | 113% and 111%
HCC1937 [10] | – | 90.7% and 85.8%
HDQ-P1 | – | 101% and 85.7%
Hs578T [17] | – | 78.3% and 89.4%
MDA-MB-231 | – | 80.4% and 89.5%
MDA-MB-436 [13] | – | 100% and 93.8%
MDA-MB-453 [1] | 0 | –
MDA-MB-453 [15] | – | 94% and 89%
MDA-MB-468 | – | 95.9% and 102%
MFM-223 | – | 99.6% and 95.5%
SK-BR-3 | – | 73.4% and 86.6%

Details | normalised viability
BT-474 [6], 10 nM | 107% and 99.8%
BT-474 [6], 1000 nM | 93.9% and 106%
BT-474 [6], 10000 nM | 92.1% and 103%
DU-4475 [3], 3 nM | 105% and 98.1%
DU-4475 [3], 30 nM | 96.6% and 119%
DU-4475 [3], 100 nM | 97.6% and 99.3%
HCC1143 [4], 10 nM | 70.6% and 81.2%
HCC1143 [4], 1000 nM | 98.7% and 101%
HCC1143 [4], 10000 nM | 65% and 65.2%
HCC1599 [8], 10 nM | 93.3% and 95.8%
HCC1937 [2], 10 nM | 86% and 80.5%
HCC1937 [2], 1000 nM | 69.4%
HCC1937 [2], 10000 nM | 71.9% and 73.7%
Hs578T [9], 10 nM | 97.3% and 112%
Hs578T [9], 1000 nM | 89% and 84.7%
Hs578T [9], 10000 nM | 106% and 91%
MDA-MB-436 [5], 10 nM | 98.2% and 88.3%
MDA-MB-436 [5], 1000 nM | 75.7% and 76.8%
MDA-MB-436 [5], 10000 nM | 92.5% and 75.2%
MDA-MB-453 [7], 3 nM | 111% and 103%
MDA-MB-453 [7], 30 nM | 95.6% and 90%
MDA-MB-453 [7], 100 nM | 91.7% and 103%

C=CCN(/C=C1/C(=O)O[C@H](COC)[C@@]2(C)C1=C(O)C(=O)C1=C2[C@H](OC(C)=O)C[C@]2(C)C(=O)CC[C@@H]12)CC=C [PX-866]
Details | drug sensitivity score | normalised viability [%]
BT-474 [14] | – | 118
BT-549 | – | 98.4
CAL-51 | – | 110
CAL-85-1 | – | 104
CAL-120 | – | 108
CAL-148 | – | 100
DU-4475 [11] | – | 97
HCC1143 [12] | – | 99.2
HCC1599 [16] | – | 112
HCC1937 [10] | – | 99
HDQ-P1 | – | 109
Hs578T [17] | – | 81
MDA-MB-231 | – | 97.8
MDA-MB-436 [13] | – | 102
MDA-MB-453 [1] | 0 | –
MDA-MB-453 [15] | – | 99.3
MDA-MB-468 | – | 90.2
MFM-223 | – | 95.2
SK-BR-3 | – | 78.1

normalised viability [%]
Details | BT-474 [6] | DU-4475 [3] | HCC1143 [4] | HCC1599 [8] | HCC1937 [2] | Hs578T [9] | MDA-MB-436 [5] | MDA-MB-453 [7]
3 nM | – | 109 | – | – | – | – | – | 128
10 nM | 118 | – | 91.6 | 98.3 | 106 | 120 | 93.3 | –
30 nM | – | 96.1 | – | – | – | – | – | 95.7
100 nM | – | 92.7 | – | – | – | – | – | 98.9
1000 nM | 87.3 | – | 80.8 | 105 | 73.6 | 89.4 | 90.2 | –
10000 nM | 41.9 | – | 60.8 | 78.3 | 59.7 | 40.1 | 62 | –

CC[C@H](CO)Nc1nc(NCc2ccccc2)c2ncn(C(C)C)c2n1 [Roscovitine]
Details | drug sensitivity score | normalised viability [%]
BT-474 [14] | – | 94.9
BT-549 | – | 98.5
CAL-51 | – | 104
CAL-85-1 | – | 101
CAL-120 | – | 82.7
CAL-148 | – | 88.8
DU-4475 [11] | – | 104
HCC1143 [12] | – | 83.4
HCC1599 [16] | – | 116
HCC1937 [10] | – | 97.3
HDQ-P1 | – | 120
Hs578T [17] | – | 91.1
MDA-MB-231 | – | 88.5
MDA-MB-436 [13] | – | 96.5
MDA-MB-453 [1] | 0 | –
MDA-MB-453 [15] | – | 106
MDA-MB-468 | – | 108
MFM-223 | – | 89
SK-BR-3 | – | 73.1

normalised viability [%]
Details | BT-474 [6] | DU-4475 [3] | HCC1143 [4] | HCC1599 [8] | HCC1937 [2] | Hs578T [9] | MDA-MB-436 [5] | MDA-MB-453 [7]
3 nM | – | 99.9 | – | – | – | – | – | 105
10 nM | 109 | – | 84.3 | 109 | 83.8 | 111 | 107 | –
30 nM | – | 101 | – | – | – | – | – | 114
100 nM | – | 89.7 | – | – | – | – | – | 109
1000 nM | 96.5 | – | 88.1 | 95.8 | 105 | 91.4 | 92.7 | –
10000 nM | 79.4 | – | 74.7 | 64.4 | 77.2 | 42.6 | 79.4 | –

O=C(CCCCCCC(=O)Nc1ccccc1)NO [Vorinostat]
Details | drug sensitivity score | normalised viability
BT-474 [14] | – | 87.5% and 93.6%
BT-549 | – | 106% and 90%
CAL-51 | – | 107% and 93.5%
CAL-85-1 | – | 109% and 96.3%
CAL-120 | – | 79.2% and 93.3%
CAL-148 | – | 88.3% and 92.3%
DU-4475 [11] | – | 109%
HCC1143 [12] | – | 94.1% and 114%
HCC1599 [16] | – | 101% and 111%
HCC1937 [10] | – | 98.6% and 84.2%
HDQ-P1 | – | 113% and 89.2%
Hs578T [17] | – | 74.4% and 83.6%
MDA-MB-231 | – | 97.9% and 86.1%
MDA-MB-436 [13] | – | 107% and 95.4%
MDA-MB-453 [1] | 11.4 and 11.6 | –
MDA-MB-453 [15] | – | 115% and 97.7%
MDA-MB-468 | – | 104% and 97.3%
MFM-223 | – | 103% and 97.1%
SK-BR-3 | – | 59.4% and 81.4%

Details | normalised viability
BT-474 [6], 10 nM | 98.6% and 105%
BT-474 [6], 1000 nM | 92.6% and 78.7%
BT-474 [6], 10000 nM | 3.63% and 2.44%
DU-4475 [3], 3 nM | 108% and 97.7%
DU-4475 [3], 30 nM | 104% and 99.7%
DU-4475 [3], 100 nM | 99.1% and 94.5%
HCC1143 [4], 10 nM | 86.1% and 105%
HCC1143 [4], 1000 nM | 86.9% and 84.5%
HCC1143 [4], 10000 nM | 21.4% and 24.2%
HCC1599 [8], 10 nM | 110% and 97.9%
HCC1599 [8], 1000 nM | 85.5% and 99.2%
HCC1599 [8], 10000 nM | 20.5%
HCC1937 [2], 10 nM | 73% and 92.4%
HCC1937 [2], 1000 nM | 77.7% and 63.4%
HCC1937 [2], 10000 nM | 24.6% and 22.7%
Hs578T [9], 10 nM | 111% and 118%
Hs578T [9], 1000 nM | 88.4% and 87%
Hs578T [9], 10000 nM | 12.3% and 11.5%
MDA-MB-436 [5], 10 nM | 105% and 104%
MDA-MB-436 [5], 10000 nM | 41.3% and 40.6%
MDA-MB-453 [7], 3 nM | 107% and 96.8%

Source: the supplement of paper PMC4862054
